Reference: patent US10940201B2, “Nucleic acid derivative having immunostimulatory activity” (Shionogi & Co., Ltd., priority 2015, dated 2021)

Assay: Subcutaneous irritation test in a single dose
Format: in vivo, rats
Conditions: for Gross: Crust / Gross: White matter accumulation / Histopathological, Subcutaneous: Cyst-like structure / Histopathological, Subcutaneous tissue: Cyst-like structure / Gross: Dark red spots / Gross: Edema / Gross: Epidermis: Crust: number of the observed animals; for Histopathological, Dermis: Inflammatory cell infiltration / Histopathological, Subcutaneous: Granulomatous inflammation / Histopathological, Subcutaneous: Inflammatory cell infiltration / Histopathological, Subcutaneous: Edema / Histopathological, Muscle layer: Edema / Histopathological, Muscle layer: Inflammatory cell infiltration / Histopathological, Muscle layer: Necrosis / Histopathological, Subcutaneous tissue: Bleeding / Histopathological, Subcutaneous tissue: Edema / Histopathological, Subcutaneous tissue: Inflammatory cell infiltration / Histopathological, Subcutaneous tissue: Necrosis / Histopathological, Subcutaneous: Necrosis: total score of grades
Experimental: Subcutaneous irritation of a compound of the present invention was evaluated by gross examination and histopathological examination about the skin at necropsy one day, one and four week(s) after subcutaneous administration in a single dose.
The compound of the present invention was subcutaneously administered to the center of back between the shoulder blades of rats. At necropsy one day, one or four week(s) after administration (isoflurane anesthesia, euthanasia by bleeding), skin at the administration site was collected, grossly observed and fixed in 10% neutral buffered formalin solution. The fixed skin was cut out, embedded and put in a thin slice by the usual methods, and Hematoxylin-eosin (HE) stained sections were made. The pathological observers were observed the HE stained sections by an optical microscope, and recorded the histopathological findings. The changes in pathological findings were evaluated in four grades of Minimal; ±, Mild; +, Moderate; 2+ and Marked; 3+. When any grade was not appropriate for the finding, it was recorded as Positive.
SEQ-2, SEQ-49 or an adjuvant of the present invention was dissolved in phosphate buffered saline and administered at 4.71, 15.7 or 47.1 nmol/1 mL/site, respectively.

[1] = four weeks after administration, 4.71 nmol/site
[2] = four weeks after administration, 15.7 nmol/site
[3] = four weeks after administration, 47.1 nmol/site
[4] = one day after administration, 4.71 nmol/site
[5] = one day after administration, 15.7 nmol/site
[6] = one day after administration, 47.1 nmol/site
[7] = one week after administration, 4.71 nmol/site
[8] = one week after administration, 15.7 nmol/site
[9] = one week after administration, 47.1 nmol/site

For Amph1826 [SEQ-2], the “Number of deaths/imminent dissections” value [1] was 0/0, the “Gross: Crust” value [1] was 0 and the “Gross: White matter accumulation” value [1] was 0. The “Histopathological, Subcutaneous: Cyst-like structure” value [1] was 0, the “Histopathological, Dermis: Inflammatory cell infiltration” value (“Histopathological, Dermis” below) [1] was 0 and the “Histopathological, Subcutaneous: Granulomatous inflammation” value [1] was 4. For the same substance, the “Histopathological, Subcutaneous: Inflammatory cell infiltration” value [1] was 0, the “Number of deaths/imminent dissections” value [2] was 0/0 and the “Gross: Crust” value [2] was 0. For the same substance, the “Gross: White matter accumulation” value [2] was 0, the “Histopathological, Subcutaneous: Cyst-like structure” value [2] was 0 and the “Histopathological, Dermis” value [2] was 4. The “Histopathological, Subcutaneous: Edema” value [2] was 0, the “Histopathological, Subcutaneous: Granulomatous inflammation” value [2] was 5 and the “Histopathological, Subcutaneous: Inflammatory cell infiltration” value [2] was 0. The “Number of deaths/imminent dissections” value [3] was 0/0, the “Gross: Crust” value [3] was 0 and the “Gross: White matter accumulation” value [3] was 0. For the same substance, the “Histopathological, Subcutaneous: Cyst-like structure” value [3] was 0, the “Histopathological, Dermis” value [3] was 7 and the “Histopathological, Subcutaneous: Edema” value [3] was 0. The “Histopathological, Subcutaneous: Granulomatous inflammation” value [3] was 7, the “Histopathological, Subcutaneous: Inflammatory cell infiltration” value [3] was 0 and the “Number of deaths/imminent dissections” value [4] was 0/0. For the same substance, the “Histopathological, Subcutaneous tissue: Cyst-like structure” value [4] was 1, the “Histopathological, Dermis” value [4] was 5 and the “Histopathological, Muscle layer: Edema” value [4] was 1. The “Histopathological, Muscle layer: Inflammatory cell infiltration” value [4] was 4, the “Histopathological, Muscle layer: Necrosis” value [4] was 0 and the “Histopathological, Subcutaneous tissue: Bleeding” value (shortened to “Histopathological … Bleeding”) [4] was 0. For the same substance, the “Histopathological, Subcutaneous tissue: Edema” value [4] was 3, the “Histopathological, Subcutaneous tissue: Inflammatory cell infiltration” value [4] was 7 and the “Histopathological, Subcutaneous tissue: Necrosis” value [4] was 1. For the same substance, the “Number of deaths/imminent dissections” value [5] was 0/0, the “Histopathological, Subcutaneous tissue: Cyst-like structure” value [5] was 2 and the “Histopathological, Dermis” value [5] was 9. The “Histopathological, Muscle layer: Edema” value [5] was 3, the “Histopathological, Muscle layer: Inflammatory cell infiltration” value [5] was 7 and the “Histopathological, Muscle layer: Necrosis” value [5] was 0. For the same substance, the “Histopathological … Bleeding” value [5] was 3, the “Histopathological, Subcutaneous tissue: Edema” value [5] was 5 and the “Histopathological, Subcutaneous tissue: Inflammatory cell infiltration” value [5] was 6. For the same substance, the “Histopathological, Subcutaneous tissue: Necrosis” value [5] was 1, the “Number of deaths/imminent dissections” value [6] was 0/0 and the “Histopathological, Subcutaneous tissue: Cyst-like structure” value [6] was 1. The “Histopathological, Dermis” value [6] was 6, the “Histopathological, Muscle layer: Edema” value [6] was 4 and the “Histopathological, Muscle layer: Inflammatory cell infiltration” value [6] was 6. For the same substance, the “Histopathological, Muscle layer: Necrosis” value [6] was 0, the “Histopathological … Bleeding” value [6] was 3 and the “Histopathological, Subcutaneous tissue: Edema” value [6] was 6. For the same substance, the “Histopathological, Subcutaneous tissue: Inflammatory cell infiltration” value [6] was 6, the “Histopathological, Subcutaneous tissue: Necrosis” value [6] was 1 and the “Number of deaths/imminent dissections” value [7] was 0/0. For the same substance, the “Gross: Dark red spots” value [7] was 0, the “Gross: Edema” value [7] was 0 and the “Gross: Epidermis: Crust” value [7] was 0. The “Gross: White matter accumulation” value [7] was 0, the “Histopathological, Subcutaneous: Cyst-like structure” value [7] was 1 and the “Histopathological, Dermis” value [7] was 4. The “Histopathological, Muscle layer: Inflammatory cell infiltration” value [7] was 0, the “Histopathological, Subcutaneous: Edema” value [7] was 3 and the “Histopathological, Subcutaneous: Granulomatous inflammation” value [7] was 0. For the same substance, the “Histopathological, Subcutaneous: Necrosis” value [7] was 0, the “Number of deaths/imminent dissections” value [8] was 0/0 and the “Gross: Dark red spots” value [8] was 0. For the same substance, the “Gross: Edema” value [8] was 1, the “Gross: Epidermis: Crust” value [8] was 0 and the “Gross: White matter accumulation” value [8] was 0. For the same substance, the “Histopathological, Subcutaneous: Cyst-like structure” value [8] was 1, the “Histopathological, Dermis” value [8] was 6 and the “Histopathological, Muscle layer: Inflammatory cell infiltration” value [8] was 4. For the same substance, the “Histopathological, Subcutaneous: Edema” value [8] was 4, the “Histopathological, Subcutaneous: Granulomatous inflammation” value [8] was 0 and the “Histopathological, Subcutaneous: Inflammatory cell infiltration” value [8] was 8. For the same substance, the “Histopathological, Subcutaneous: Necrosis” value [8] was 0, the “Number of deaths/imminent dissections” value [9] was 0/0 and the “Gross: Dark red spots” value [9] was 0. For the same substance, the “Gross: Edema” value [9] was 1, the “Gross: Epidermis: Crust” value [9] was 0 and the “Gross: White matter accumulation” value [9] was 0. The “Histopathological, Subcutaneous: Cyst-like structure” value [9] was 3, the “Histopathological, Dermis” value [9] was 9 and the “Histopathological, Muscle layer: Inflammatory cell infiltration” value [9] was 6. The “Histopathological, Subcutaneous: Edema” value [9] was 3, the “Histopathological, Subcutaneous: Granulomatous inflammation” value [9] was 0 and the “Histopathological, Subcutaneous: Inflammatory cell infiltration” value [9] was 8. For the same substance, the “Histopathological, Subcutaneous: Necrosis” value [9] was 0, the “subcutaneous irritation findings four weeks after administration” value (rats, single subcutaneous dose, four weeks) was “skin inflammation was not recovered, and granulomatous inflammation by continuous activation of monocyte/macrophage system was observed” and the “subcutaneous irritation findings one day after administration” value (rats, single subcutaneous dose, one day) was “inflammation cellular infiltration, edema and crust were observed”. For the same substance, the “subcutaneous irritation findings one week after administration” value (rats, single subcutaneous dose, one week) was “inflammation cellular infiltration, edema and crust were observed”.
